Reference: patent publication US6730693B2, “Double salts of fumaric acid with a carnitine and an amino acid and food supplements, dietary supplements and drugs containing same” (Sigma-Tau Industrie Farmaceutiche Riunite S.p.A., priority 2000, dated 2004)
Structures can show the parent of a compound that is named as a salt.

Assays:
[1] = Weight increase and appearance after exposure to relative humidity (hygroscopicity test); assay type: physicochemical; details: for 24 hours; for Weight increase %: exposure to a relative humidity of 60 ±5% at 25%; for Appearance: exposure to a relative humidity of 60 ±5%
[2] = Hygroscopicity of the isolated solid as observed on preparation; assay type: physicochemical; details: isolated solid after preparation
Procedure: The mixture was then filtered under vacuum and the solid thus obtained was dried in a thermostatic oven at 30° C. overnight.
The mixture was then filtered under vacuum and the solid thus obtained dried in a thermostatic oven at 30° C. overnight.
8 g (0.05 moles) of L-carnitine inner salt, 5.8 g (0.05 moles) of fumaric acid and 6.6 g of L-ornithine were dissolved in 7.5 mL of water at 60° C. and the resulting thick, clear mass was slowly poured into a solution of acetone (800 mL) under vigorous mechanical stirring.

Row | Molecule | Weight increase % [1] | Appearance [1] | Hygroscopicity of the solid obtained [2]
1 | CN(CC(=O)O)C(=N)N [Anhydrous creatine] | 3% | flowable | –
2 | isovaleryl L-carnitine and lysine fumarate | – | – | non-hygroscopic
3 | Isovaleryl L-Carnitine and Creatine Fumarate [Ex. 2 (BS/232)] | 0.19% | no variation | non-hygroscopic
4 | C[N+](C)(C)C[C@H](O)CC(=O)[O-].O=C(O)/C=C/C(=O)O [L-carnitine fumarate] | – | – | highly hygroscopic
5 | L-carnitine and lysine fumarate | – | – | non-hygroscopic
6 | C[N+](C)(C)C[C@H](O)CC(=O)[O-] [L-carnitine inner salt] | 19% | deliquescent | –
7 | L-Carnitine and Creatine Fumarate [Ex. 1 (BS/231)] | 0.18% | no variation | non-hygroscopic
8 | CC(C)CC(=O)O[C@H](CC(=O)[O-])C[N+](C)(C)C [Isovaleryl L-carnitine inner salt] | 20% | deliquescent | –
